Test results from PubChem BioAssay (NCI).
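Exposure lasted 48 hours, with cells grown in 96-well plates and compounds tested at five concentrations. GI50 = concentration required for 50% inhibition of growth. TGI marks complete inhibition of growth.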

What was measured:
Experiment in all cases: growth of human tumour cells (NCI), 48 h
EKVX NSCLC = tested on: EKVX NSCLC
HCC-2998 colon = tested on: HCC-2998 colon
HT29 colon = tested on: HT29 colon
LOX IMVI melanoma = tested on: LOX IMVI melanoma
OVCAR-3 ovarian = tested on: OVCAR-3 ovarian
SK-MEL-28 melanoma = tested on: SK-MEL-28 melanoma
SR leukemia = tested on: SR leukemia
NCI-H460 lung = tested on: NCI-H460 lung

Row | Structure (SMILES) | TGI (EKVX NSCLC) | TGI (HCC-2998 colon) | TGI (HT29 colon) | TGI (LOX IMVI melanoma) | TGI (OVCAR-3 ovarian) | TGI (SK-MEL-28 melanoma) | TGI (SR leukemia) | TGI (NCI-H460 lung) | GI50 (HCC-2998 colon) | GI50 (HT29 colon) | GI50 (LOX IMVI melanoma) | GI50 (NCI-H460 lung) | GI50 (OVCAR-3 ovarian) | GI50 (SK-MEL-28 melanoma) | GI50 (SR leukemia) | GI50 (EKVX NSCLC)
1 | Cn1c2ccccc2c2ccc3c(c21)C(=O)c1ccccc1C3=O | > 100 µM | > 100 µM | 39.5 µM | 29.4 µM | 26.8 µM | 29.4 µM | 13.9 µM |  |  |  |  |  |  |  |  | 
2 | CC(C)(CO)N1CCN(C(=S)Nc2ccccc2)CC1 | > 100 µM |  | > 100 µM | > 100 µM | > 100 µM | > 100 µM |  | > 100 µM |  |  |  |  |  |  |  | 
3 | Nc1cccc(S(=O)(=O)NCC(=O)O)c1 | > 100 µM | > 100 µM | > 100 µM | > 100 µM | > 100 µM | > 100 µM |  | > 100 µM |  |  |  |  |  |  |  | 
4 | C[C@@H]1OC(=O)N2CCCC(=C3SCCCS3)C12 (stereo partly specified) | > 100 µM |  | > 100 µM | > 100 µM | > 100 µM | > 100 µM |  | > 100 µM |  |  |  |  |  |  |  | 
5 | O=C1c2cccc([N+](=O)[O-])c2C(=O)N1c1ncn[nH]1 | > 100 µM |  | > 100 µM | > 100 µM | > 100 µM | > 100 µM | > 100 µM | > 100 µM |  |  |  |  |  |  |  | 
6 | CN(C)CCNC(=O)c1cccc2ccc(-c3ccncc3)nc12 | 13.4 µM | 10.2 µM | 13.8 µM |  | 14.4 µM | 17.5 µM |  |  |  |  |  |  |  |  |  | 
7 | COC1(OC)CC2OC1C1N=NN(C(=O)OC(C)(C)C)C21 (stereo unspecified) |  | > 100 µM | > 100 µM | > 100 µM | > 100 µM | > 100 µM |  | > 100 µM |  |  |  |  |  |  |  | 
8 | COc1cc[nH]c1/C=C1\C(=O)Nc2ccc(F)c(C#CC3(O)CCNCC3)c21 |  | 0.979 µM | 1.1 µM | 0.568 µM | 1.55 µM | 1.39 µM | 0.141 µM | 0.747 µM | 0.368 µM | 0.0916 µM | 0.0645 µM | 0.0778 µM | 0.35 µM | 0.14 µM | 0.00864 µM | 
9 | CCC[CH2][Sn]1([CH2]CCC)[O]C(=O)CN=Cc2c(ccc3ccccc23)[O]1 | 1.86 µM | 2.02 µM | 2.36 µM | 0.827 µM | 1.95 µM | 1.13 µM |  | 2.75 µM | 0.777 µM | 1.08 µM | 0.242 µM | 1.36 µM | 0.706 µM | 0.363 µM |  | 0.552 µM
10 | CC(C)(C)c1cc(CCC(=O)Nc2ccc(Cl)cc2)nc(NC#N)n1 | > 100 µM |  | > 100 µM | > 100 µM | > 100 µM | > 100 µM |  | > 100 µM |  |  |  |  |  |  |  | 
11 | C/C(O)=C(\N=O)C(=O)Nc1ccc(Cl)cc1Cl | > 100 µM | > 100 µM | > 100 µM | > 100 µM | > 100 µM | > 100 µM |  | > 100 µM |  |  |  |  |  |  |  | 
12 | O=C(N/C(=C\c1cccc([N+](=O)[O-])c1)c1nc2ccc([N+](=O)[O-])cc2[nH]1)c1ccccc1 | > 100 µM | > 100 µM | > 100 µM |  | > 100 µM | > 100 µM | 65.6 µM |  |  |  |  |  |  |  |  | 
13 | O=C1CCC(N2C(=O)c3ccccc3C2=O)C(=O)N1CO (stereo unspecified) | > 100 µM |  | > 100 µM | 58 µM | > 100 µM | > 100 µM |  | > 100 µM |  | 42.1 µM | 23.6 µM | > 100 µM | 67.4 µM | > 100 µM |  | > 100 µM
14 | CCOC1Oc2ccc(C)cc2C(=O)/C1=C\Nc1ccc(C(N)=O)cc1 (stereo unspecified) | 69 µM | 39 µM | > 100 µM | 34.4 µM | 46.8 µM | > 100 µM |  | > 100 µM | 20.3 µM | 37.5 µM | 13.9 µM | 33.3 µM | 18.8 µM | 51.7 µM |  | 25.8 µM
15 | CCN(CC)C(c1ccc(N(C)C)cc1)C(c1ccc(N(C)C)cc1)N(CC)CC (stereo unspecified) | > 73 µM | > 73 µM | > 73 µM |  | > 73 µM | > 73 µM |  | > 73 µM |  |  |  |  |  |  |  | 
16 | COc1ccc2nc3c(C(=O)NCCN(C)C)cccc3nc2c1 | 15.7 µM | 20 µM | 28.8 µM | 17.9 µM | 59.9 µM | 26.1 µM |  | > 1 µM |  |  |  |  |  |  |  | 
17 | O=C(CC1(O)C(=O)Nc2c(Cl)ccc(Cl)c21)c1ccc(F)cc1 (stereo unspecified) | > 100 µM | > 100 µM | > 100 µM | > 100 µM | > 100 µM | > 100 µM |  | > 100 µM |  |  |  |  |  |  |  | 
18 | COc1cc(C(=O)CBr)c(OC)cc1C | > 100 µM |  | > 100 µM | > 100 µM |  | > 100 µM | > 100 µM |  |  |  |  |  |  |  |  | 
19 | CCc1ccccc1NC(=O)C1=C(C)NC(C)=C(C(=O)Nc2ccccc2CC)C1c1ccc2c(c1)OCO2 | > 100 µM | 41 µM | > 100 µM | 88.7 µM | 84 µM | > 100 µM |  | > 100 µM |  |  |  |  |  |  |  | 
20 | Nc1c(-c2ccc(Cl)cc2)[n+]([O-])c2ccccc2[n+]1[O-] | > 100 µM | > 100 µM | > 100 µM | > 100 µM | > 100 µM | > 100 µM |  | > 100 µM |  |  |  |  |  |  |  | 
